Assay results: patent US20240358693A1, “METHODS OF TREATING PAIN” (Aisa Pharma, Inc., priority 2023, published 2024)

Tested on: participants with SSc-RP
Experiment: Scleroderma Health Assessment Questionnaire (SHAQ): disability indices and visual analog scales
Format: in vivo, human
Conditions: for SHAQ Standard Disability Index: Baseline, Mean / SHAQ Standard Disability Index: Baseline, Median / SHAQ Standard Disability Index: Change from Baseline (Day 12), Mean / SHAQ Standard Disability Index: Change from Baseline (Day 12), Median / SHAQ Standard Disability Index: In-Clinic Visit (Day 12), Mean / SHAQ Standard Disability Index: In-Clinic Visit (Day 12), Median / SHAQ Standard Disability Index: Percent Change from Baseline (Day 12), Mean / SHAQ Standard Disability Index: Percent Change from Baseline (Day 12), Median: PP Population, Part A, sensitivity analysis
From the text: The standard, validated, patient reported outcome measures tool for SSc patients, the Scleroderma Health Assessment Questionnaire (SHAQ), will be used to assess the participant qualify of life. Details are attached in the Appendix. The participant quality of life will be scored, and a disability index calculated for each questionnaire completed by the patient at Screening and each in-clinic visit. The absolute change in participant quality of life from baseline to the end of each dosing period will be calculated similar to frequency data as before.
The SHAQ includes a Raynaud's VAS, which will be reported at screening and each in-clinic visit. The absolute change in Raynaud-VAS, assessed by the participants response to the SHAQ question ‘In the past 7 days, how much have your Raynaud's interfered with your daily activities?’ at baseline and the end of each dosing period will be calculated similar to frequency data as before.
The SHAQ is used to calculate a Disability Index to assess the participant qualify of life. The eight categories assessed by the Disability Index are 1) dressing and grooming, 2) arising, 3) eating, 4) walking, 5) hygiene, 6) reach, 7) grip, and 8) common daily activities. For each of these categories, patients report the amount of difficulty they have in performing two or three specific activities.
There are four possible responses for the Disability Index questions: • Without any difficulty=0 • With some difficulty=1 • With much difficulty=2 • Unable to do=3. • The highest score reported by the patient for any component question of the eight categories determines the score for that category. • If a component question is left blank or the response is too ambiguous to assign a score, then the score for that category is determined by the remaining completed question(s). • If all component questions are blank or if more than one answer is given, then follow up with the respondent is required. • If the respondent's mark is between the response columns, then move it to the closest one. If it's directly between the two, move it to the higher one.
Each of the disability items on the SHAQ has a companion aids/devices variable that is used to record what type(s) of assistance, if any, the participant uses for his/her usual activities. These variables (see below) are coded as follows: • 0=No assistance is needed. • 1=A special device is used by the patient in his/her usual activities. • 2=The patient usually needs help from another person. • 3=The patient usually needs BOTH a special device AND help from another person.
The scoring variables and scoring rules permit the computation of two disability indices, the Standard Disability Index and the Alternative Disability Index.
This question results in a new set of category scores that are computed by adjusting the score for each category, if necessary, based on the patient's use of an aid or device or assistance for that category. If either devices and/or help from another person are checked for a category, the score is set to “2”, unless the score is already “3” (i.e., scores of “0” or “1” are increased to “2”). For example, if the highest score for the dressing category is “1”, and the patient says they use a device for dressing, the computed category score would be “2”. The sum of the computed categories scores is then calculated and divided by the number of categories answered. This gives a score in the 0 to 3 range.
The aid and device variables are not used to calculate the alternative disability index; it is calculated by adding the scores for each of the categories and dividing by the number of categories answered. This gives a score in the 0 to 3 range.
The standard, validated, patient reported outcome measures tool for SSc patients, the SHAQ, was collected at the time points specified in the study schedules (FIG. 2 and FIGS. 4A and 4B) to assess the participant's quality of life. The SHAQ included a Raynaud's VAS that will also be reported separately.

[1] = Table C9, Pooled Cilnidipine 10 mg and Cilnidipine 10 mg + Tadalafil 5 mg
[2] = Table C9, Pooled Cilnidipine 20 mg and Cilnidipine 20 mg + Tadalafil 5 mg
[3] = Table C9, pooled cilnidipine 10 mg and 20 mg arms (plus tadalafil 5 mg where labelled)
[4] = Table C10, Pooled Cilnidipine 10 mg and Cilnidipine 10 mg + Tadalafil 5 mg
[5] = Table C10, Pooled Cilnidipine 20 mg and Cilnidipine 20 mg + Tadalafil 5 mg
[6] = Table C10, pooled cilnidipine 10 mg and 20 mg arms (plus tadalafil 5 mg where labelled)

SMILES: COCCOC(=O)C1=C(C)NC(C)=C(C(=O)OC/C=C/c2ccccc2)C1c1cccc([N+](=O)[O-])c1 (centres unmarked) [Cilnidipine, cilnidipine]
- SHAQ % Δ from baseline, VAS Finger Ulcers, median (Pooled cilnidipine (4)): −50.9%
- SHAQ % Δ from baseline, alternative disability, mean (Pooled cilnidipine (4)): −12.9%
- SHAQ % Δ from baseline, alternative disability, median (Pooled cilnidipine (4)): −22.2%
- SHAQ % Δ from baseline, standard disability, mean (Pooled cilnidipine (4)): −25%
- SHAQ % Δ from baseline, standard disability, median (Pooled cilnidipine (4)): −16.7%
- SHAQ % Δ from baseline, Intestinal Problems, mean (Pooled cilnidipine (5)): −32.4%
- SHAQ % Δ from baseline, Intestinal Problems, median (Pooled cilnidipine (5)): −44.1%
- SHAQ % Δ from baseline, VAS Overall Disease Severity, mean (Pooled cilnidipine (6)): −59.8%
- SHAQ % Δ from baseline, VAS Overall Disease Severity, median (Pooled cilnidipine (6)): −55.9%
- SHAQ % Δ from baseline, VAS Pain, mean (Pooled cilnidipine (6)): −31.2%
- SHAQ % Δ from baseline, VAS Pain, median (Pooled cilnidipine (6)): −45%
- SHAQ % Δ from baseline, VAS Raynaud's, mean (Pooled cilnidipine (6)): −18.6%
- SHAQ % Δ from baseline, VAS Raynaud's, median (Pooled cilnidipine (6)): −38.7%
- SHAQ Standard Disability Index: Baseline, Mean [1]: 0.597
- SHAQ Standard Disability Index: Baseline, Median [1]: 0.500
- SHAQ Standard Disability Index: Change from Baseline (Day 12), Mean [1]: −0.021
- SHAQ Standard Disability Index: Change from Baseline (Day 12), Median [1]: 0.000
- SHAQ Standard Disability Index: In-Clinic Visit (Day 12), Mean [1]: 0.576
- SHAQ Standard Disability Index: In-Clinic Visit (Day 12), Median [1]: 0.375
- SHAQ Standard Disability Index: Percent Change from Baseline (Day 12), Mean [1]: 7.50%
- SHAQ Standard Disability Index: Percent Change from Baseline (Day 12), Median [1]: 0.00%
- SHAQ Standard Disability Index: Baseline, Mean [2]: 0.563
- SHAQ Standard Disability Index: Baseline, Median [2]: 0.375
- SHAQ Standard Disability Index: Change from Baseline (Day 12), Mean [2]: −0.065
- SHAQ Standard Disability Index: Change from Baseline (Day 12), Median [2]: 0.000
- SHAQ Standard Disability Index: In-Clinic Visit (Day 12), Mean [2]: 0.498
- SHAQ Standard Disability Index: In-Clinic Visit (Day 12), Median [2]: 0.250
- SHAQ Standard Disability Index: Percent Change from Baseline (Day 12), Mean [2]: −1.66%
- SHAQ Standard Disability Index: Percent Change from Baseline (Day 12), Median [2]: −12.82%
- SHAQ Standard Disability Index: Baseline, Mean [3]: 0.500
- SHAQ Standard Disability Index: Baseline, Median [3]: 0.375
- SHAQ Standard Disability Index: Change from Baseline (Day 12), Mean [3]: −0.031
- SHAQ Standard Disability Index: Change from Baseline (Day 12), Median [3]: 0.000
- SHAQ Standard Disability Index: In-Clinic Visit (Day 12), Mean [3]: 0.469
- SHAQ Standard Disability Index: In-Clinic Visit (Day 12), Median [3]: 0.188
- SHAQ Standard Disability Index: Percent Change from Baseline (Day 12), Mean [3]: −16.00%
- SHAQ Standard Disability Index: Percent Change from Baseline (Day 12), Median [3]: 0.00%
- SHAQ Standard Disability Index: Baseline, Mean [4]: 0.597
- SHAQ Standard Disability Index: Baseline, Median [4]: 0.500
- SHAQ Standard Disability Index: Change from Baseline (Day 12), Mean [4]: −0.021
- SHAQ Standard Disability Index: Change from Baseline (Day 12), Median [4]: 0.000
- SHAQ Standard Disability Index: In-Clinic Visit (Day 12), Mean [4]: 0.576
- SHAQ Standard Disability Index: In-Clinic Visit (Day 12), Median [4]: 0.375
- SHAQ Standard Disability Index: Percent Change from Baseline (Day 12), Mean [4]: 7.50%
- SHAQ Standard Disability Index: Percent Change from Baseline (Day 12), Median [4]: 0.00%
- SHAQ Standard Disability Index: Baseline, Mean [5]: 0.563
- SHAQ Standard Disability Index: Baseline, Median [5]: 0.375
- SHAQ Standard Disability Index: Change from Baseline (Day 12), Mean [5]: −0.065
- SHAQ Standard Disability Index: Change from Baseline (Day 12), Median [5]: 0.000
- SHAQ Standard Disability Index: In-Clinic Visit (Day 12), Mean [5]: 0.498
- SHAQ Standard Disability Index: In-Clinic Visit (Day 12), Median [5]: 0.250
- SHAQ Standard Disability Index: Percent Change from Baseline (Day 12), Mean [5]: −1.66%
- SHAQ Standard Disability Index: Percent Change from Baseline (Day 12), Median [5]: −12.82%
- SHAQ Standard Disability Index: Baseline, Mean [6]: 0.500
- SHAQ Standard Disability Index: Baseline, Median [6]: 0.375
- SHAQ Standard Disability Index: Change from Baseline (Day 12), Mean [6]: −0.031
- SHAQ Standard Disability Index: Change from Baseline (Day 12), Median [6]: 0.000
- SHAQ Standard Disability Index: In-Clinic Visit (Day 12), Mean [6]: 0.469
- SHAQ Standard Disability Index: In-Clinic Visit (Day 12), Median [6]: 0.188
- SHAQ Standard Disability Index: Percent Change from Baseline (Day 12), Mean [6]: −16.00%
- SHAQ Standard Disability Index: Percent Change from Baseline (Day 12), Median [6]: 0.00%
- mean decrease in patient reported disease severity on the SHAQ (pooled cilnidipine patients, 10 mg or 20 mg (n=7)): 60%
